Among the test systems are HCT-116 colon; SW-620 colon; UACC-62 melanoma; RPMI-8226 leukemia; TK-10 renal; SF-295 CNS; ACHN renal; OVCAR-5 ovarian; MOLT-4 leukemia; SR leukemia.
Holding throughout (assay): inhibition of tumour cell growth, NCI panel, 48 h

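How tested: cells in 96-well plates exposed to compound for 48 hours at five concentrations. At the GI50, growth is halved. Definition used: TGI = concentration required for complete inhibition of growth.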

As to `O=C1C(=O)c2ccccc2-c2ccccc21`, the GI50 was 0.831 µM with HCT-116 colon; 2.06 µM in the test with SW-620 colon; 1.52 µM with UACC-62 melanoma; 0.583 µM in the test with RPMI-8226 leukemia; 1.82 µM in the test on TK-10 renal; 1.76 µM in the test with SF-295 CNS. The GI50 with ACHN renal is 1.44 µM; in the test with OVCAR-5 ovarian, 1.75 µM; with MOLT-4 leukemia, 1.56 µM; with SR leukemia, 0.555 µM. Further, the TGI in the test on HCT-116 colon is 2.21 µM; in the test on SW-620 colon, 4.78 µM; in the test on UACC-62 melanoma it was 3.03 µM; in the test on RPMI-8226 leukemia it was 2.79 µM; in the test with TK-10 renal it was 3.3 µM; in the test with SF-295 CNS, 3.23 µM. Moreover, the TGI was 2.84 µM with ACHN renal, 3.52 µM in the test with OVCAR-5 ovarian, 4.75 µM in the test with MOLT-4 leukemia and 7.82 µM in the test with SR leukemia.
With `Cc1cc(C)c(O)c(Cc2cccc(Cc3cc(C)cc(C)c3O)c2O)c1`, the TGI with HCT-116 colon, in the test with SW-620 colon, in the test with UACC-62 melanoma, with RPMI-8226 leukemia, in the test on TK-10 renal and in the test with SF-295 CNS was more than 100 µM each time. Besides, the TGI in the test with ACHN renal, in the test with OVCAR-5 ovarian, in the test with MOLT-4 leukemia and with SR leukemia was more than 100 µM each time.

Values taken from PubChem BioAssay (NCI).
